Legend:
[1] = molecular target: recombinant PtSAD protein (Populus tremuloides, UniProt Q94G59); assay: Kinetic properties of the recombinant PtSAD protein (HPLC-UV/MS); type: biochemical; conditions: substrate of PtSAD; relative, sinapaldehyde = 100
Description: To characterize the enzyme pH optima, the substrate and recombinant PtCAD or PtSAD protein concentrations described above were used in sodium phosphate buffers, pH 5 to 8.5. […] For inhibition kinetics, the PtCAD-mediated reduction of sinapaldehyde (1 to 200 μM) was assayed in the presence of 1 to 5 μM coniferaldehyde, and the PtSAD-catalyzed reduction of coniferaldehyde (1 to 200 μM) was assayed in the presence of 1 to 5 μM sinapaldehyde. All reactions were terminated by the addition of 10 μL of 6 N HCI (to bring the pH to 2) and 500 ng of internal standard o-coumaric acid and analyzed by HPLC-UV/MS. An aliquot of 100 μL of reaction mixture was injected directly onto a Supelcosil LC-ABZ column (15 cm×4.6 mm×5 μm; Supelco, Bellefonte, Pa.) with automatic sample injection and separated isocratically with a Hewlett-Packard (HP) 1100 liquid chromatography system at 40° C. and a flow rate of 0.25 mL/min. […] The reaction products were identified and confirmed by comparing the ion fragmentation patterns of the product and the authentic standard in MS scanning mode at 70 V. The product quantity and Km, Vmax, kcat, and apparent inhibition constant (Ki) values (means±SE) were determined as described (Osakabe et al., 1999; Li et al., 2000). The results of the inhibition kinetics for both the CAD enzyme (i.e. Table 2) and the SAD enzyme (i.e., Table 3) using a variety of substrates are illustrated below.

[2] = molecular target: T1, PtCAD (recombinant coniferyl alcohol dehydrogenase, GenBank AF217957, C-terminal His tag, expressed in E. coli BL21(DE3)) (Populus tremuloides, UniProt Q9M632); assay: Inhibition kinetics of PtCAD: PtCAD-mediated reduction of sinapaldehyde in the presence of coniferaldehyde, HPLC-UV/MS (FIG. 6); type: biochemical, Populus tremuloides (quaking aspen); conditions: coniferaldehyde (1 to 5 μM) as inhibitor of PtCAD-mediated reduction of sinapaldehyde (1 to 200 μM); 500 μM NADPH; 1.2 μg purified recombinant PtCAD; pH 8.0; 4 min; 30° C.; read-out: apparent inhibition constant (Ki)
T1 sequence (Q9M632 1-357): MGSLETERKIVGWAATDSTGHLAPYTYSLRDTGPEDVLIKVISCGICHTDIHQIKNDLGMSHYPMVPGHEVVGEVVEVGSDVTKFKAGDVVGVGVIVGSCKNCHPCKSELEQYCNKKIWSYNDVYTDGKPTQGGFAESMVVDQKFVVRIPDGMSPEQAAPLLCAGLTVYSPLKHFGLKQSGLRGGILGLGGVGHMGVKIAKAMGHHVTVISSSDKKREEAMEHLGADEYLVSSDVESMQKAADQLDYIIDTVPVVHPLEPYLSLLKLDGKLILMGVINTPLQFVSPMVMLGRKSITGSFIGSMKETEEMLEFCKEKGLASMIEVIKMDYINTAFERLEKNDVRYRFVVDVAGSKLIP
Text: FIG. 6 illustrates inhibition kinetics of PtCAD and PtSAD;
A guaiacyl pathway gene encoding coniferyl alcohol dehydrogenase (CAD, FIG. 1) from Populus tremuloides (GenBank #AF217957) was first cloned. This cDNA was designated as PtCAD (GenBank #AF217957). E. coli-expressed recombinant PtCAD protein was characterized for its catalytic activity with coniferaldehyde and sinapaldehyde. Because monolignol biosynthetic pathway intermediates are present together in lignifying tissues (Osakabe et al., 1999; Li et al. 2000), the PtCAD enzyme activity with a mixture of coniferaldehyde and sinapaldehyde was assayed. As shown in FIG. 5 (a) and (c), the reaction mixture was separated by HPLC after the enzyme reaction. […] Thus, PtCAD has a specific catalytic reaction function with coniferaldehyde for the biosynthesis of guaiacyl monolignol, coniferyl alcohol (FIG. 1). […]
For normal and inhibition kinetic analyses, the reaction time was 4 min and pH was 8.0 for PtCAD (1.2 μg of purified recombinant protein) and 7.0 for PtSAD (0.1 μg). […] All reactions were terminated by the addition of 10 μL of 6 N HCI (to bring the pH to 2) and 500 ng of internal standard o-coumaric acid and analyzed by HPLC-UV/MS. […]

Sequence of recombinant PtSAD protein (Q94G59 entry or part of it): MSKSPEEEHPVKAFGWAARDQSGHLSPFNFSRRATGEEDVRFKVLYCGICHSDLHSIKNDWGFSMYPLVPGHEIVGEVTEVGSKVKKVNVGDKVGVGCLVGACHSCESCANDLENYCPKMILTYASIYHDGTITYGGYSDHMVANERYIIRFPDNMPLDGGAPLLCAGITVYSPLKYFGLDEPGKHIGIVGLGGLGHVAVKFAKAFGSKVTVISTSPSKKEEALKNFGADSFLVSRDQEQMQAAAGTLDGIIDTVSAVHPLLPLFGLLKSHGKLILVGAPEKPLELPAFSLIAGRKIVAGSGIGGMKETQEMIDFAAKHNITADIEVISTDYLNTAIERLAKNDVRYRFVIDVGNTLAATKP

In the case of `COc1cc(/C=C/C=O)ccc1O` [Coniferaldehyde], the Vmax/Km [1] is reported as 26.6% and the Ki [2] is reported as 1700 nM.
